Data set [1] has as its system MDA-MB-231. Kind of data set: Antiinvasive activity against human MDA-MB-231 cells at 10 to 20 uM after 24 hrs by Cultrex BME assay. The format is functional, cell-based.
Data set [2] has as its system MCF-10A. Kind of data set: Cytotoxicity against human MCF10A cells at IC50 in wound healing assay after 24 hrs by MTT assay. The format is cell-based.
Data set [3] has as its system MCF-10A. Kind of data set: Cytotoxicity against human MCF10A cells at IC50 in MDA-MB-231 MTT assay after 24 hrs by MTT assay. It is filed as cell-based.
The subject of data set [4] is MDA-MB-231. Kind of data set: Cytotoxicity against human MDA-MB-231 cells after 24 hrs by MTT assay. To be noted: MDA-MB-231, 24 h.
The subject of data set [5] is MDA-MB-231. Kind of data set: Antimigratory activity against human MDA-MB-231 cells after 24 hrs by wound healing assay. To be noted: MDA-MB-231, 24 h.
Data set [6] relates to MDA-MB-231. Kind of data set: Antimigratory activity against human MDA-MB-231 cells at 25 uM after 24 hrs by wound healing assay. The format is functional. To be noted: for inhibition at 25 µM: MDA-MB-231, 24 h.
Data set [7] relates to MDA-MB-231. Kind of data set: Antiinvasive activity against human MDA-MB-231 cells assessed as cell invasion at 10 uM after 24 hrs by Cultrex BME assay. It is filed as functional.
Data set [8] has as its system MDA-MB-231. Briefly: Antiinvasive activity against human MDA-MB-231 cells assessed as cell invasion at 20 uM after 24 hrs by Cultrex BME assay. The format is functional.
Data set [9] concerns the target T1, Hepatocyte growth factor receptor (Homo sapiens, UniProt P08581). The settings on record: 25 to 100 nM.
Description: Competitive inhibition of c-MET phosphorylation (unknown origin) at 25 to 100 nM after 60 mins by Omnia kinase assay
Data set [10] addresses T1, Hepatocyte growth factor receptor. Kind of data set: Competitive inhibition of c-MET phosphorylation (unknown origin) after 60 mins by Omnia kinase assay.
The target is the same in data set [11]. Briefly: Inhibition of c-MET phosphorylation (unknown origin) at 10 uM after 1 hr by Z'-LYTE kinase assay.
The test system of data set [12] is MDA-MB-231. Kind of data set: Antimigratory activity against human MDA-MB-231 cells at 10 uM after 24 hrs by wound healing assay. The format is functional, cell-based.
Data set [13] relates to MDA-MB-231. Kind of data set: Antiinvasive activity against human MDA-MB-231 cells at 20 uM after 24 hrs by Cultrex BME assay. It is filed as functional. The settings on record: MDA-MB-231, 24 h.
Data set [14] concerns MDA-MB-231. Briefly: Antimigratory activity against human MDA-MB-231 cells at 50 uM after 24 hrs by wound healing assay. The format is functional, cell-based.

pIC50: −log10 of the molar value. Activity calls are given as the source filed them. The rule behind the calls is not given here.

T1 sequence (P08581 whole entry): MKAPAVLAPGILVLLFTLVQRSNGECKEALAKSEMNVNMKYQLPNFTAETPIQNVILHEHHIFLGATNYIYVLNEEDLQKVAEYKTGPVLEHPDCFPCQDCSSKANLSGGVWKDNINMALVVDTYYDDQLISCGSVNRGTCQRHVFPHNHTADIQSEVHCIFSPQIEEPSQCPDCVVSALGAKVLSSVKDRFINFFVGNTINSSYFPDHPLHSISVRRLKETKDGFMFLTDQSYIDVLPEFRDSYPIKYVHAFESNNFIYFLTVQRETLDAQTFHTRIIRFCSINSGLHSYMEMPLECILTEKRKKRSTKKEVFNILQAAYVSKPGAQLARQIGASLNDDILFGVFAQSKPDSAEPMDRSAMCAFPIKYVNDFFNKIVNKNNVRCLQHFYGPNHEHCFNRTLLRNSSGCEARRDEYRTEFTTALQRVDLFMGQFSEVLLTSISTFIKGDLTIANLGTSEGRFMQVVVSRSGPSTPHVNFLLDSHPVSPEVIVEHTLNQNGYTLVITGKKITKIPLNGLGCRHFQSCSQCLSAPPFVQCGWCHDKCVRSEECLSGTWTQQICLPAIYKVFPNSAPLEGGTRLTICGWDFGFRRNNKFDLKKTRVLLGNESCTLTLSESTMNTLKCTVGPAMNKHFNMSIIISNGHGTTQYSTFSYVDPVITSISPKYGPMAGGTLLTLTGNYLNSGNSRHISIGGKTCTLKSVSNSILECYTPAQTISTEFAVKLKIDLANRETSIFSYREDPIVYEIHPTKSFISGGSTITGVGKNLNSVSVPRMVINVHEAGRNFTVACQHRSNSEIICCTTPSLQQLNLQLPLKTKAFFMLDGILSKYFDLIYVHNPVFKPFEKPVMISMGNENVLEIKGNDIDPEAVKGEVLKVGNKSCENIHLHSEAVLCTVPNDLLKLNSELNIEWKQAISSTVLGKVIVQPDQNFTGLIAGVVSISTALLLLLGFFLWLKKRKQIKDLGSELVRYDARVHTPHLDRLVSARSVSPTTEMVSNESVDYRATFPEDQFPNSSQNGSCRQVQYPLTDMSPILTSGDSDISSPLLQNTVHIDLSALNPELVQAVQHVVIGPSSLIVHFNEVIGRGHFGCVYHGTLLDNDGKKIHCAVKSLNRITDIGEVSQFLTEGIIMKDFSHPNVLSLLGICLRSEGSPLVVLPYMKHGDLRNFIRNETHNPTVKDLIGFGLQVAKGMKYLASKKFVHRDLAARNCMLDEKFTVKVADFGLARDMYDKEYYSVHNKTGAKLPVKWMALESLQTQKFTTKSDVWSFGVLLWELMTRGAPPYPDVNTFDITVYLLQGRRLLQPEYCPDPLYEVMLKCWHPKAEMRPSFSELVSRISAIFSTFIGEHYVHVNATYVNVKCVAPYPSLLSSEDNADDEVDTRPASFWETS

Turning to `O=C(NCc1ccccc1)OCCc1ccc(OC(=O)NCc2ccccc2)cc1`, the inhibition (commonly the share of the control response that was lost under treatment) in the data set with MDA-MB-231 [1] was “inactive”. Also, the Activity result in the data set with MCF-10A [2] and with MCF-10A [3] was “Non-toxic” throughout. Further, the pIC50 in the data set on MDA-MB-231 [4] and with MDA-MB-231 [5] was under 4.00 in each case.

As for `O=C(Cc1ccc(O)c(O)c1)OCCc1ccc(O)cc1`, in the data set with MDA-MB-231 [1], the inhibition result is “inactive”. Moreover, the Activity entry in the data set on MCF-10A [2] and with MCF-10A [3] was “Non-toxic” each time. The inhibition entry in the data set on MDA-MB-231 [6] is “Active”. Besides, the pIC50 (usually the negative decadic logarithm of the IC50, by convention in mol/L) was under 4.00 in the data set on MDA-MB-231 [4] and 4.38 with MDA-MB-231 [5].

Consider `COc1cc(/C=C/C(=O)OCCc2ccc(O)cc2)cc(OC)c1OC`, for which the inhibition entry with MDA-MB-231 [1] was “inactive”. Moreover, the Activity entry in the data set with MCF-10A [2] and in the data set on MCF-10A [3] was “Non-toxic” in each case. Further, in the data set on MDA-MB-231 [6], the inhibition entry is “Active”. Also, the values for the pIC50 in the data set with MDA-MB-231 [4] and in the data set with MDA-MB-231 [5] were under 4.00 and 4.33, respectively.

Take `CCn1cc(C(=O)OCCc2ccc(O)cc2)c(=O)c2ccc(C)nc21`: the Activity entry with MCF-10A [2] was “Non-toxic”; in the data set on MDA-MB-231 [7], 60%; with MCF-10A [3], “Non-toxic”; in the data set with MDA-MB-231 [8] it was 36%.

As for `O=C(NCc1ccccc1)OCCc1ccc(O)cc1`, the Activity entry in the data set on MCF-10A [2] and with MCF-10A [3] was “Non-toxic” in each case. The pIC50 with MDA-MB-231 [4] and in the data set on MDA-MB-231 [5] was under 4.00 in each case.

In the case of `Cc1[nH]c(/C=C2\C(=O)Nc3ccc(S(=O)(=O)N(C)c4cccc(Cl)c4)cc32)c(C)c1C(=O)N1CCN(C)CC1`, in data set [9], the inhibition result is “Active”.

On to `Cc1ccc(S(=O)(=O)NC(=O)OCCc2ccc(O)cc2)cc1` [4-HYDROXYPHENETHYL TOSYLCARBAMATE], for which the inhibition result in the data set with MDA-MB-231 [1] was “inactive”. Moreover, the Activity entry in the data set with MCF-10A [2] and in the data set with MCF-10A [3] was “Non-toxic” throughout. Moreover, the pIC50 in the data set with MDA-MB-231 [4] and with MDA-MB-231 [5] was under 4.00 throughout.

Regarding `C/C=C(/C=O)[C@@H](CC=O)CC(=O)OCCc1ccc(O)cc1` [(-)-OLEOCANTHAL], the inhibition entry in the data set on MDA-MB-231 [1] is “inactive”. For the same molecule, the Activity entry in the data set with MCF-10A [2] and in the data set with MCF-10A [3] was “Non-toxic” throughout. Further, the inhibition entry (in data set [10]; in the data set on MDA-MB-231 [12]) was “Active” throughout. The molecule also showed an inhibition in data set [11] of 93.4%.

In turn, `C=C[C@@H]1[C@H](O)OC=C(C(=O)OC)[C@H]1CC(=O)OCCc1ccc(O)cc1` [LIGSTROSIDE AGLYCONE] had an inhibition at 20 µM in the data set on MDA-MB-231 [13] of over 50%. Further, the Activity result in the data set on MCF-10A [2] and with MCF-10A [3] was “Non-toxic” in each case. Testing at 25 µM with MDA-MB-231 [6] gave an inhibition of 60%. The pIC50 with MDA-MB-231 [4] is 4.09; in the data set on MDA-MB-231 [5] it was 4.86.

For `O=C(/C=C/c1ccc(O)c(O)c1)OCCc1ccc(O)cc1` [TYROSOL CAFFEATE], the inhibition entry in the data set with MDA-MB-231 [1] is “inactive”. The inhibition at 20 µM with MDA-MB-231 [13] was over 50%. Further, the Activity entry in the data set on MCF-10A [2] and in the data set on MCF-10A [3] was “Non-toxic” in each case. Further, the pIC50 with MDA-MB-231 [4] and with MDA-MB-231 [5] was under 4.00 in each case.

In the case of `COc1cc(CC(=O)OCCc2ccc(O)cc2)ccc1O` [TYROSOL HOMOVANILLATE], in the data set on MDA-MB-231 [1], the inhibition result was “inactive”. Besides, the Activity result in the data set with MCF-10A [2] and in the data set with MCF-10A [3] was “Non-toxic” in each case. Further, the pIC50 in the data set on MDA-MB-231 [4] and with MDA-MB-231 [5] was under 4.00 in each case.

Consider `COc1cc(/C=C/C(=O)OCCc2ccc(O)cc2)cc(OC)c1O` [TYROSOL SINAPATE], for which the inhibition entry in the data set with MDA-MB-231 [1] was “inactive”. Besides, the inhibition at 20 µM in the data set on MDA-MB-231 [13] was over 50%. Further, the Activity result in the data set on MCF-10A [2] and in the data set on MCF-10A [3] was “Non-toxic” each time. Moreover, the inhibition entry with MDA-MB-231 [6] is “Active”.

Take `COc1cc(C(=O)OCCc2ccc(O)cc2)cc(OC)c1O` [TYROSOL SYRINGATE]: the inhibition entry in the data set with MDA-MB-231 [1] was “inactive”. The Activity result in the data set on MCF-10A [2] and in the data set with MCF-10A [3] was “Non-toxic” in each case. In the data set with MDA-MB-231 [6], this molecule registered an inhibition at 25 µM of 60%. Also, the negative-log IC50 (pIC50) in the data set on MDA-MB-231 [4] was under 4.00; with MDA-MB-231 [5], 4.71.

Consider `OCCc1ccc(O)cc1` [TYROSOL], for which the Activity result with MCF-10A [2] and in the data set on MCF-10A [3] was “Non-toxic” each time. Further, the inhibition entry in the data set with MDA-MB-231 [14] was “inactive”. In addition, the negative logarithm of the IC50 (pIC50) with MDA-MB-231 [4] and in the data set with MDA-MB-231 [5] was under 4.00 each time.
